From patent publication US20210162028A1, “Methods for Inducing Intermittent Fasting and Modulating Autophagy” (The Hong Kong Polytechnic University, priority 2019, published 2021) come the findings set out here.

“Also recorded” adds a separate entry of the source.

Holding throughout (assay type): in vivo, mouse
Test [1] in a line: Fat pad and organ mass at end of treatment. The following applies: DIO C57BL/6J male mice on HFD.
Test [2] is described as follows: Hepatic steatosis (oil Red O / H&E staining, liver triglyceride). The following applies: DIO C57BL/6J male mice on HFD, 11 weeks after treatment.
A short description of test [3]: Insulin tolerance test (ITT). To be noted: DIO C57BL/6J male mice on HFD, after 6 weeks. The text has this:
In terms of reversing insulin resistance on pre-existing obese mice, insulin tolerance test (ITT) was employed (FIG. 59).
In terms of reversing insulin resistance on pre-existing obese mice, insulin tolerance test (ITT) was employed (FIG. 68A).

Test [4] in a line: Daily food intake / 7-day intermittent fasting cycle in mice. The following applies: DIO C57BL/6J male mice on HFD. The text has this: One of the most noticeable effects of intermittent fasting is reduction of bodyweight. […] Specifically, C57BL/6J, which is the most commonly used mouse strain for polygenic obesity model, was used in the study. It is well-reported that C57BL/6J male mice feeding on a high-fat diet will have prominent weight gain, become obese and develop hyperinsulinemia, hyperglycemia, impaired glucose tolerance and insulin resistance [Gallou-Kabani et al., 2007, Obesity 15(8):1996-2005]. Obesity was induced in C57BL/6J male mice via feeding ad libitum a high-fat diet containing 60 kcal % fat (HFD; Research Diets, D12492) for 12-14 weeks starting from 5-week old. These mice are referred as diet-induced obese (DIO) mice. DIO mice were stratified according to bodyweight into 2 groups. […] Both groups of mice continued to feed ad libitum on the HFD throughout the treatment period. One group of age-matched C57BL/6J male mice feeding ad libitum on an ordinary rodent chow diet (CD; LabDiet, 50IF/6F) and injected with vehicle served as the lean control [CD (vehicle) group]. Food intake and bodyweight of mice were measured daily. […] DIO mice were injected with rhArg on Day 0, which was Day 7 of the previous cycle. Similarly, Day 7 of the cycle shown in FIG. 1B was Day 0 of the next cycle. […] Bodyweight gain is one of the biomarkers related to aging.
C57BL/6J male mice were fed a high-fat diet from 5-week old for 12 weeks. They were then stratified into 3 groups according to their bodyweight and individually caged: (i) one group of mice received i.p. injection of 600 U N-ABD094-rhArg (SEQ ID NO: 50) once a week [HFD (rhArg) group] and was fed ad libitum the HFD for 5 weeks; (ii) one group of mice received i.p. injection of saline once a week, and was fed a predetermined amount of HFD on each day to artificially create a 7-day intermittent fasting cycle that mimics the pattern of food intake of mice administered once a week with rhArg [HFD (artificial IF) group)]; (iii) one group of mice was injected with saline once a week and was fed ad libitum the HFD [HFD (vehicle) group].

A short description of test [5]: Bodyweight of treated mice. The following applies: DIO C57BL/6J male mice on HFD.
Test [6] can be described thus: Glucose tolerance test (GTT). To be noted: DIO C57BL/6J male mice on HFD, after 7 weeks.
Test [7] deals with hepatocyte. Nature of the test: Transmission electron microscopy of liver (hepatocytes). To be noted: DIO C57BL/6J male mice on HFD, 3 weeks, Day 3. The text has this: FIG. 47 illustrates the liver examined by transmission electron microscopy at Day 1, Day 3, Day 5 and Day 7 of the 7-day intermittent after N-ABD094-rhArg injection.
The presence of autophagosome in liver after treatment for 3 weeks were examined by TEM (FIGS. 62, 63 and 64).
The presence of autophagosome in liver after treatment for 3 weeks were examined by transmission electron microscopy (FIGS. 71 and 72).

The mark [8] stands for this setting: rhArg once a week alone or 0.33 mg RA daily alone.
Where [9] appears, read: rhArg weekly and/or 0.33 mg/day RA.
Where [10] appears, read: rhArg weekly and/or 0.33 mg RA daily.
[11] abbreviates: 300 U rhArg once a week and/or 300 mg/kg metformin daily.
[12] abbreviates: 300 U/week rhArg and/or 300 mg/kg metformin.

For `CC1=C(/C=C/C(C)=C/C=C/C(C)=C/C(=O)O)C(C)(C)CCC1` [RA, all-trans retinoic acid, reference compound], the “Mass of organs including liver, pancreas and BAT” value in test [1] (setting [8]) is listed as “can already reduce the mass of most organs”. Further, the “Visceral and subcutaneous fat mass” value in test [1] (rhArg once a week and/or 0.33 mg RA daily) is on record as “did not reduce body fat”. In addition, the “Lipid in liver (H&E staining)” value in test [2] (rhArg and/or RA) is “significant effect on diminishing lipid in liver”. The “Insulin sensitivity in ITT” value in test [3] (setting [9]) is “marginal effect on improving insulin sensitivity but not reach statistical significant”. Moreover, the “Pattern of food intake (intermittent fasting cycle)” value in test [4] (200 U rhArg i.p. once a week and/or 0.33 mg RA daily) is “stable”. In addition, the “Total food intake per week, less than HFD (vehicle) group” value in test [4] (200 U rhArg i.p. once a week and/or 0.33 mg RA daily by gastric feeding, 10 weeks) is “slight, but insignificant decrease”. The “Change in bodyweight under single treatment” value (shortened to “Change in bodyweight”) in test [5] (setting [8]) was “could only prevent further gain in bodyweight, but did not result in weight loss; also recorded: stable body weight without further increase”. For the same compound, the “Glucose tolerance in GTT” value in test [6] (setting [9]) is reported as “cannot relieve glucose intolerance”. Further, in test [7] (setting [10]), the “TEM of liver: autophagosomes” value is on record as “autophagosome was rarely seen; also recorded: no autophagosome is observed” and the “TEM of liver: lipid droplets” value is reported as “significant decrease in lipid droplet size”.

Consider `CN(C)C(=N)N=C(N)N` [metformin, reference compound], for which, in test [1] (setting [11]), the “Mass of organs including liver, kidney and BAT” value is “cannot reduce the mass of most organs”; the “Visceral and subcutaneous fat mass” value is on record as “did not reduce body fat”. For the same compound, in test [2] (rhArg and/or metformin), the “Lipid in liver (H&E staining)” value was “slight effect of diminishing lipid in liver”. Further, in test [3] (setting [12]), the “Insulin sensitivity in ITT” value is “cannot relieve insulin resistant”. Further, the “Pattern of food intake (intermittent fasting cycle)” value in test [4] (300 U rhArg i.p. once a week and/or 300 mg/kg metformin daily) is reported as “stable”. The “Total food intake per week, less than HFD (vehicle) group” value in test [4] (300 U rhArg i.p. once a week and/or 300 mg/kg metformin daily by gastric feeding, 9 weeks) came to 13%. The “Change in bodyweight” value in test [5] (300 U rhArg once a week alone or 300 mg/kg metformin daily alone) is recorded as “stable body weight without further increase in body mass”. The “Change in bodyweight” value in test [5] (300 U rhArg once a week alone or 300 mg/kg metformin daily alone, listed as Met) was “could only prevent further gain in bodyweight, but did not result in weight loss”. Moreover, the “Glucose tolerance in GTT” value in test [6] (setting [12]) is given as “cannot relieve glucose intolerance”. Also, in test [7] (setting [12]), the “TEM of liver: autophagosomes” value is “no autophagosome is observed; also recorded: autophagosome was rarely seen” and the “TEM of liver: lipid droplets” value is reported as “significant decrease in lipid droplet size”.
